One assay deals with Torulopsis glabrata. The experiment in a line: Antimycotic in vitro activity, series dilution test. It is filed as cell-based. Particulars: Nakaseomyces glabratus; meat extract/glucose broth; 5×10^4 germs/ml; 20° C.; 24 to 96 hours. As to the method: (§1) The in vitro tests were carried out in a series dilution test with germ inocula of on average 5×10^4 germs/ml of substrate. The nutrient medium used was (b) for yeasts: meat extract/glucose broth. The incubation temperature was 20° C. and the duration of incubation was 24 to 96 hours in the case of yeasts and 96 hours in the case of dermatophytes and moulds.

For a further assay, the system named is Candida albicans. The description is as above. Type of assay: cell-based. Particulars: meat extract/glucose broth, 5×10^4 germs/ml, 20° C., 24 to 96 hours. As to the method:
as §1

Assay [1] relates to dermatophytes, moulds and yeasts. Put plainly: Antimycotic in vitro activity, series dilution test (overall action spectrum). It is filed as cell-based. Particulars: result in words. As to the method: The in vitro tests were carried out in a series dilution test with germ inocula of on average 5×10^4 germs/ml of substrate. The nutrient medium used was (a) for dermatophytes and moulds: Sabourand's milieu d'epreuve, and (b) for yeasts: meat extract/glucose broth. The incubation temperature was 20° C. and the duration of incubation was 24 to 96 hours in the case of yeasts and 96 hours in the case of dermatophytes and moulds.

A further assay deals with Trichophyton mentagr. Put plainly: Antimycotic in vitro activity, series dilution test. It is filed as cell-based, Trichophyton mentagrophytes. Particulars: Sabourand's milieu d'epreuve, 5×10^4 germs/ml, 20° C., 96 hours. As to the method: (§2) The in vitro tests were carried out in a series dilution test with germ inocula of on average 5×10^4 germs/ml of substrate. The nutrient medium used was (a) for dermatophytes and moulds: Sabourand's milieu d'epreuve, […] The incubation temperature was 20° C. and the duration of incubation was 24 to 96 hours in the case of yeasts and 96 hours in the case of dermatophytes and moulds.

The next assay has as its system Candida. Put plainly: Antimycotic in vivo activity (oral) in candidosis of mice. On the set-up: species or system mice (SPF-CF1). Particulars: 10-50 mg/kg one hour before and seven hours after infection, result in words. As to the method:
Mice of the SPF-CF1 type were infested intravenously with 1-2×10^6 logarthmically growing Candida cells, which were suspended in physiological saline solution. The animals were treated with, in each case, 10-50 mg/kg of body weight of the products one hour before and seven hours after the infection.

For another assay, the system named is Aspergillus fumigatus. Put plainly: Antimycotic in vitro activity, series dilution test. Type of assay: cell-based. Particulars: Sabourand's milieu d'epreuve, 5×10^4 germs/ml, 20° C., 96 hours. As to the method:
as §2

This is an account of results in patent US5011850A, “Substituted diazolylalkyl-carbinols, a process for their preparation and their use as antimycotic agents” (Bayer Aktiengesellschaft, priority 1983, dated 1991).

The MIC is the lowest concentration that inhibits growth of the organism. A high value points to a less susceptible organism.

≈ marks a conversion by molar mass, not a printed value. Some results are limits rather than exact numbers.

As for `CC(C)(n1cncn1)C(O)(Cn1cncn1)c1ccc(F)cc1` (stereo not drawn) [Example 3], the MIC was 64 µg/mL (≈ 202 µM) in the assay with Torulopsis glabrata, 16 µg/mL (≈ 50.6 µM) against Candida albicans, 16 µg/mL (≈ 50.6 µM) against Trichophyton mentagr. and greater than 64 µg/mL in the assay with Aspergillus fumigatus. Further, in assay [1], the “antimycotic action spectrum in vitro” value is reported as “good antimycotic action spectrum”. For the same molecule, in the assay with Candida, the “antimycotic action in candidosis of mice (in words)” value (from here on “antimycotic action in candidosis”) was “good antimycotic action”.
Regarding `CC(C)(n1cncn1)C(O)(Cn1cncn1)c1ccccc1` (stereo not drawn) [Example 4], in the assay on Candida, the “antimycotic action in candidosis” value was “good antimycotic action”.
`CC(C)(n1cncn1)C(O)(Cn1cncn1)c1ccc(-c2ccc(Cl)cc2)cc1` (stereo not drawn) [Example 6]: the MIC was 64 µg/mL (≈ 157 µM) with Candida albicans, no more than 1 µg/mL with Trichophyton mentagr. and 16 µg/mL (≈ 39.1 µM) in the assay with Aspergillus fumigatus. Also, the “antimycotic action spectrum in vitro” value in assay [1] is reported as “good antimycotic action spectrum”.
Turning to `CC(C)(n1cncn1)C(O)(Cn1cncn1)c1ccc(Cl)cc1` (stereo not drawn) [Example 1, 2-(4-chlorophenyl)-1,3-di-(1,2,4-triazol-1-yl)-3-methyl-2-butanol], in the assay with Candida, the “antimycotic action in candidosis” value is on record as “good antimycotic action”.
On to `CC(C)(n1cncn1)C(O)(Cn1cncn1)c1ccc(Oc2ccc(Cl)cc2)cc1` (stereo not drawn) [Example 5], for which the minimum inhibitory concentration (MIC) is 32 µg/mL (≈ 75.3 µM) in the assay with Torulopsis glabrata, 2 µg/mL (≈ 4.71 µM) against Candida albicans, no more than 1 µg/mL against Trichophyton mentagr. and greater than 64 µg/mL in the assay with Aspergillus fumigatus. Further, in assay [1], the “antimycotic action spectrum in vitro” value is reported as “good antimycotic action spectrum”. Besides, in the assay on Candida, the “antimycotic action in candidosis” value was “good antimycotic action”.
For the molecule `CC(C)(n1cncn1)C(O)(Cn1ccnc1)c1ccc(Oc2ccc(Cl)cc2)cc1` (stereo not drawn) [Example 8], the MIC against Torulopsis glabrata was found to be 32 µg/mL (≈ 75.5 µM); in the assay with Candida albicans, 4 µg/mL (≈ 9.44 µM); with Trichophyton mentagr. it was 8 µg/mL (≈ 18.9 µM); in the assay with Aspergillus fumigatus, 64 µg/mL (≈ 151 µM). Moreover, the “antimycotic action spectrum in vitro” value in assay [1] is “good antimycotic action spectrum”.
On the same counts, the results for `CC(C)(n1cncn1)C(O)(Cn1ccnc1)c1ccc(-c2ccc(Cl)cc2)cc1` (stereo not drawn) [Example 9] are 8 µg/mL (≈ 19.6 µM), 8 µg/mL (≈ 19.6 µM), 4 µg/mL (≈ 9.81 µM), 32 µg/mL (≈ 78.4 µM) and “good antimycotic action spectrum”.
Turning to `CC(n1cncn1)C(O)(Cn1cncn1)c1ccc(-c2ccccc2)cc1` (stereo not drawn) [Example 10], the MIC with Torulopsis glabrata came to 64 µg/mL (≈ 178 µM); in the assay with Candida albicans, 2 µg/mL (≈ 5.55 µM); with Trichophyton mentagr., 2 µg/mL (≈ 5.55 µM); with Aspergillus fumigatus, 64 µg/mL (≈ 178 µM). For the same molecule, the “antimycotic action spectrum in vitro” value in assay [1] is “good antimycotic action spectrum”.
